Reference: the supplement of paper PMC7840683
Where a name gives a salt, the structure may show the parent alone. ± gives the standard deviation of the averaged measurements.

System: HepaRG
Assay: LDH release cytotoxicity, % of total lysis control; higher = more cytotoxic
Settings: 48 h
In short: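 Single-lot HepaRG cells on collagen I-coated 96-well plates were exposed for 48 h in duplicate, in serum-free induction medium with 0.5% DMSO, to eight-point half-log series (test chemicals top 100 µM). Total lysis wells received 0.1% Triton X, and LDH leakage into 50 µL spent medium was read as resorufin fluorescence (CytoTox-ONE, Tecan Safire). Percent cytotoxicity was normalized to on-plate vehicle and total lysis controls and averaged over the duplicates.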

| Compound | LDH release cytotoxicity (0.03162 µM) [%] | LDH release cytotoxicity (0.1 µM) [%] | LDH release cytotoxicity (0.3162278 µM) [%] | LDH release cytotoxicity (1 µM) [%] | LDH release cytotoxicity (3.16228 µM) [%] | LDH release cytotoxicity (10 µM) [%] | LDH release cytotoxicity (31.6228 µM) [%] | LDH release cytotoxicity (100 µM) [%] | further results |
| --- | --- | --- | --- | --- | --- | --- | --- | --- | --- |
| CC(=O)OC1(C(C)=O)CCC2C3C=C(Cl)C4=CC(=O)C5CC5C4(C)C3CCC21C (configuration not stated) [Cyproterone acetate] | -0.255 ± 0.092 | -1.64 ± 0.93 | -0.773 ± 0.19 | -0.77 ± 0.3 | -0.346 ± 0.2 | 0.58 ± 0.28 | 10.4 ± 0.73 | 46.5 ± 1.5 | – |
| C=CC(N)=O [Acrylamide] | -0.83 ± 0.15 | -1.21 ± 0.58 | -1.5 ± 0.3 | -1.596 ± 0.0065 | -1.78 ± 0.096 | -0.843 ± 0.56 | -1.75 ± 0.16 | -0.493 ± 0.11 | – |
| CCC(C)(NC(=O)c1cc(Cl)c(C)c(Cl)c1)C(=O)CCl (configuration not stated) [Zoxamide] | – | – | – | – | – | – | – | – | LDH release cytotoxicity (0.0317809 µM): -0.27 ± 0.064%; LDH release cytotoxicity (0.1005 µM): -0.966 ± 0.8%; LDH release cytotoxicity (0.317809 µM): -0.7429 ± 0.0016%; LDH release cytotoxicity (1.005 µM): -1.43 ± 0.81%; LDH release cytotoxicity (3.17809 µM): -0.947 ± 0.12%; LDH release cytotoxicity (10.05 µM): -0.343 ± 0.64%; LDH release cytotoxicity (31.7809 µM): -1.15 ± 0.96%; LDH release cytotoxicity (100.5 µM): 41.9 ± 2.7% |
| CC(C)(O)c1cnn2c(-c3ccc(F)c(-c4c(F)cccc4C#N)c3)cnc2n1 | -0.882 ± 0.92 | -1.19 ± 0.31 | -1.7 ± 0.43 | -1.5 ± 1.5 | -1.51 ± 0.51 | -1.39 ± 0.59 | 1.16 ± 0.29 | 8.979 ± 0.087 | – |
| CC(C)=CC1C(C(=O)OCc2coc(Cc3ccccc3)c2)C1(C)C (configuration not stated) [Resmethrin] | -0.985 ± 0.042 | -0.737 ± 0.31 | -0.651 ± 0.22 | -1.31 ± 0.019 | -0.881 ± 0.065 | -0.19 ± 0.24 | -0.451 ± 0.58 | 0.209 ± 1.3 | – |
| O=C(NS(=O)(=O)C=Cc1cccs1)c1ccc(F)cc1Br | -1.33 ± 0.59 | -1.47 ± 0.055 | -1.39 ± 0.25 | -2.27 ± 0.8 | -1.8 ± 0.55 | -1.418 ± 0.0065 | -0.73 ± 0.11 | -0.319 ± 0.11 | – |
| CC(C)c1nnc2ccc(-c3ocnc3-c3cc(F)ccc3F)cn12 | -1.28 ± 0.22 | -1.01 ± 0.88 | -1.08 ± 0.44 | -1.31 ± 0.37 | -2.01 ± 0.34 | -1.36 ± 0.45 | -2.04 ± 0.03 | 5.98 ± 0.59 | – |
| CCCCCCCCN(C)CCCCCCCC [N-Methyldioctylamine] | -0.874 ± 0.42 | -1.29 ± 0.46 | -1.43 ± 0.024 | -1.23 ± 0.32 | -0.708 ± 0.21 | -1.14 ± 0.69 | -0.369 ± 0.46 | 0.33 ± 0.63 | – |
| O=C(O)C1(c2ccc3c(c2)OCC(Cc2ccc(-c4ccccc4)cc2)C3O)CCCC1 (configuration not stated) | -0.731 ± 0.23 | -0.599 ± 0.46 | -0.19 ± 0.2 | -0.676 ± 0.19 | -0.648 ± 0.37 | 0.306 ± 0.15 | 2.92 ± 0.35 | 72.9 ± 7 | – |
| COc1cccc(C(=O)NN(C(=O)c2cc(C)cc(C)c2)C(C)(C)C)c1C [Methoxyfenozide] | -1.25 ± 0.79 | -1.31 ± 0.37 | -0.377 ± 0.4 | -1.71 ± 0.41 | -1.43 ± 0.52 | -0.152 ± 0.72 | 0.244 ± 0.32 | 3.13 ± 0.26 | – |
| CCOC(=O)CC(SP(=S)(OC)OC)C(=O)OCC (configuration not stated) [Malathion] | 0.138 ± 0.34 | -0.944 ± 0.55 | -0.165 ± 0.55 | -0.829 ± 0.26 | -0.0242 ± 0.075 | -0.216 ± 0.19 | -0.432 ± 0.52 | 0.626 ± 0.78 | – |
| CC=Cc1ccc(O)c(OC)c1 [Isoeugenol] | -2.86 ± 1.2 | -2.42 ± 0.51 | -2.55 ± 0.96 | -3.05 ± 1.7 | -2.354 ± 0.0053 | -2.16 ± 0.6 | -2.4 ± 0.96 | -1.84 ± 1.7 | – |
| O=C(O)C(Cl)(Cl)Cl [Sodium trichloroacetate] | -0.75 ± 0.63 | -0.518 ± 0.088 | -1.06 ± 0.36 | -0.987 ± 0.68 | -1.23 ± 1.3 | -0.588 ± 0.51 | 0.00119 ± 0.52 | 0.935 ± 0.7 | – |
| Cc1ccc(C(C)(C)C)c(O)c1 [2-Tert-Butyl-5-methylphenol] | -2.27 ± 0.2 | -3.53 ± 0.25 | -3.17 ± 1.2 | -3.25 ± 0.28 | -3.05 ± 0.58 | -1.24 ± 0.75 | -1.73 ± 0.49 | 1.45 ± 1.3 | – |
| CC(CO)OC(C)CO.CC(O)COCC(C)O (configuration not stated) [Dipropylene glycol] | -0.933 ± 0.81 | -1.33 ± 0.44 | -1.72 ± 1.1 | -2.46 ± 0.3 | -1.81 ± 0.92 | -1.07 ± 0.57 | -0.766 ± 1.3 | 1.27 ± 1.3 | – |
| CCc1cc(C2=C(C(=O)O)N(c3ccccc3C(F)(F)F)S(=O)(=O)c3ccccc32)cc2c1OCO2 [Fandosentan potassium salt] | -0.538 ± 1.3 | -0.00891 ± 0.054 | -0.491 ± 0.64 | -0.769 ± 1.1 | -0.525 ± 0.42 | -0.587 ± 0.47 | 2.28 ± 1.1 | 48.4 ± 0.95 | – |
| CC(=O)C1(O)CCC2C3CCC4=CC(=O)CCC4(C)C3CCC21C (stereo not drawn) [17alpha-Hydroxyprogesterone] | -0.419 ± 1.4 | -1.4 ± 0.7 | -2.18 ± 0.12 | -1.25 ± 0.037 | -0.766 ± 0.45 | 0.609 ± 1.4 | -0.397 ± 0.26 | 0.684 ± 1.3 | – |
| O=C(c1ccc(OCCN2CCCCC2)cc1)c1c(-c2ccc(O)cc2)sc2cc(O)ccc12 [Raloxifene hydrochloride] | -1.32 ± 0.65 | -1.13 ± 1.1 | -0.881 ± 0.13 | -1.8 ± 0.23 | -2.08 ± 1.1 | -1.62 ± 0.17 | -1.9 ± 0.18 | 73.39 ± 0.7 | – |
| O=C(Nc1ccccc1-c1ccc(Cl)cc1)c1cccnc1Cl [Boscalid] | – | – | – | – | – | – | – | – | LDH release cytotoxicity (0.0332039 µM): -0.385 ± 0.58%; LDH release cytotoxicity (0.105 µM): -0.471 ± 1.4%; LDH release cytotoxicity (0.332039 µM): -0.417 ± 1.1%; LDH release cytotoxicity (1.05 µM): -1.35 ± 1.3%; LDH release cytotoxicity (3.32039 µM): -1.2 ± 0.15%; LDH release cytotoxicity (10.5 µM): -0.348 ± 0.85%; LDH release cytotoxicity (33.2039 µM): -0.586 ± 0.92%; LDH release cytotoxicity (105 µM): 0.89 ± 1.2% |
